Structures are written as SMILES. Entries after “also recorded” stand apart in the source; their conditions may differ.

The subject of one data set is HUVEC monolayers. As to the kind of experiment: Inhibition of macromolecule (HRP) permeability of thrombin-stimulated HUVEC monolayers. The class given is cell-based, human. Conditions: 1 U/ml thrombin; for IC50: Homo sapiens, 1 h, HUVEC on Transwells, 1 μM RP73401, 10 μM Motapizone, 1 mM SNP or 100 nM ANP, HRP passage after 60 min, read-out: Inhibition of SNP- or ANP-induced permeability, −log IC50 [mol/l] (converted); for Thrombin-induced increase of HRP permeability (hyperpermeability): 10 μM Motapizone (PDE3) and 1 μM RP73401 (PDE4) together. Here is the method:
Method to Assess Inhibition of Macromolecule Permeability of HUVEC Monolayers
The procedure to measure macromolecule permeability of endothelial cell monolayers followed the method described by Langeler & van Hinsbergh (1988) with modifications. Human umbilical vein endothelial cells were isolated from umbilical cords according to standard procedures (Jaffe et al. 1973) and cultured in endothelial cell basal medium (EBM) supplemented with 2% FCS, 0.5 ng/ml VEGF, 10 ng/ml bFGF, 5 ng/ml EGF, 20 ng/ml Long R3 IGF-1, 0.2 μg/ml hydrocortisone, 1 μg/ml ascorbic acid, 22.5 μg/ml heparin, 50 μg/ml gentamicin, 50 ng/ml amphotericin B (EGM2 purchased from Promocell GmbH, Heidelberg, Germany). At confluency, cells were trypsinized and replated at 73000 cells per well on 3 μm polycarbonate filter Transwell inserts (Costar GmbH, Bodenheim, Germany) precoated with 10 μg cm^2−1 Fibronectin (Sigma, Taufkirchen, Germany). HUVECs were cultured in EGM2 (100 μl in the upper wells and 600 μl in the lower wells) over four days prior the experiments and medium was changed every other day. At the day of the experiment culture medium was replaced by M199 with 1% human serum albumin. Endothelial cells were preincubated with cyclic nucleotide modifiers (the selective PDE3 inhibitor motapizone, the selective PDE4 inhibitor RP73401, the cGMP generators ANP or SNP and PDE2 inhibitors) for 15 min. HUVECs were then stimulated with Thrombin (1 U ml^−1) (Sigma, Taufkichen, Germany) and horsh radish peroxidase (5 μg/ml) (Sigma, Taufkirchen, Germany) as the macromolecule marker protein was added to the upper wells. Following 1 h incubation time Transwells were removed and the activity of horsh radish peroxidase that penetrated the endothelial cell monolayer was measured in the lower wells with the 3,3′,5,5′-tetramethylbenzidine liquid substrate system from Sigma (Taufkirchen, Germany).
In parallel, compounds according to the invention can inhibit Thrombin-induced permeability of HUVEC monolayers for horsh radish peroxidase (HRP) as a macromolecule marker. […] The concentration-dependent inhibition of HRP permeability at different concentrations was assessed from the percent inhibition in the presence and absence of the PDE2 inhibitors and in the presence of 1 μM RP73401, 10 μM Motapizone and 100 nM ANP.
Inhibition of SNP- or ANP-Induced Permeability of HUVEC Monolayers:
HUVEC cells on 3 μm polycarbonate filters (Transwells) were preincubated with 1 μM RP73401 (to block PDE4) and 10 μM Motapizone (to block PDE3), 1 mM SNP or 100 nM ANP and test sample over 15 min and then stimulated with 1 U/ml thrombin. HRP passage into the lower wells was assessed after 60 min.

Turning to `COc1ccc(-c2nnc3c4ccccc4c(Nc4ccc(NS(=O)(=O)c5cccs5)cc4)nn23)cc1` [Compound 1, Thiophene-2-sulfonic acid {4-[3-(4-methoxy-phenyl)-[1,2,4]triazolo[3,4-a]phthalazin-6-ylamino]-phenyl}-amide], the melting point fell in the range of 351 to 353 °C. Further, in the data set with HUVEC monolayers, the IC50 was 0.501 to 126 nM. The molecule `COc1ccc(-c2nnc3c4ccccc4c(Nc4ccc(NS(=O)(=O)c5cn(C)cn5)cc4)nn23)cc1` [Compound 2, 1-Methyl-1H-imidazole-4-sulfonic acid {4-[3-(4-methoxy-phenyl)-[1,2,4]triazolo[3,4-a]phthalazin-6-ylamino]-phenyl}-amide] gave a melting point of 346 to 348 °C. In turn, `COc1ccc(-c2nnc3c4ccccc4c(Nc4ccc(NS(C)(=O)=O)cc4)nn23)cc1` [Compound 3, N-{4-[3-(4-Methoxy-phenyl)-[1,2,4]triazolo[3,4-a]phthalazin-6-ylamino]-phenyl}-methanesulfonamide] had a melting point of 318 to 320 °C. The IC50 in the data set on HUVEC monolayers was 0.501 to 126 nM. The like results for `COc1ccc(-c2nnc3c4ccccc4c(Nc4ccc(NS(=O)(=O)Cc5ccccc5)cc4)nn23)cc1` [Compound 4, N-{4-[3-(4-Methoxy-phenyl)-[1,2,4]triazolo[3,4-a]phthalazin-6-ylamino]-phenyl}-1-phenyl-methanesulfonamide] were, in that order, 304 to 306 °C and 0.501 to 126 nM. In turn, `COc1ccc(-c2nnc3c4ccccc4c(Nc4ccc(NS(=O)(=O)c5cccc(OC)c5)cc4)nn23)cc1` [Compound 5, 3-Methoxy-N-{4-[3-(4-methoxy-phenyl)-[1,2,4]triazolo[3,4-a]phthalazin-6-ylamino]-phenyl}-benzenesulfonamide] gave a melting point of 290 °C. Regarding `COc1ccc(-c2nnc3c4ccccc4c(Nc4ccc(S(=O)(=O)N(C)C)cc4)nn23)cc1` [Compound 7, [4-(N,N-dimethylsulfamoyl)-phenyl]-[3-(4-methoxy-phenyl)-[1,2,4]triazolo[3,4-a]phthalazin-6-yl]-amine], the IC50 with HUVEC monolayers was 0.501 to 126 nM.

On to `COc1ccc(-c2nnc3c4ccccc4c(Nc4cccc(NS(=O)(=O)c5cn(C)cn5)c4)nn23)cc1` [Compound 11, 1-Methyl-1H-imidazole-4-sulfonic acid {3-[3-(4-methoxy-phenyl)-[1,2,4]triazolo[3,4-a]phthalazin-6-ylamino]-phenyl}-amide], for which the melting point was in the range of 184 to 187 °C. Still for that read-out and setting: to `COc1ccc(-c2nnc3c4ccccc4c(Nc4cccc(NS(=O)(=O)c5ccc(C(C)=O)cc5)c4)nn23)cc1` [Compound 12, 4-Acetyl-N-{3-[3-(4-methoxy-phenyl)-[1,2,4]triazolo[3,4-a]phthalazin-6-ylamino]-phenyl}-benzenesulfonamide] belongs 352 to 354 °C. As to `COc1ccc(-c2nnc3c4ccccc4c(Nc4cccc(S(=O)(=O)N(C)C)c4)nn23)cc1` [Compound 13, [3-(N,N-dimethylsulfamoyl)-phenyl]-[3-(4-methoxy-phenyl)-[1,2,4]triazolo[3,4-a]phthalazin-6-yl]-amine], the IC50 in the data set with HUVEC monolayers is 0.501 to 126 nM. As for `COc1ccc(-c2nnc3c4ccccc4c(Nc4cccc(NS(=O)(=O)c5ccc(N6CCOCC6)nc5)c4)nn23)cc1` [Compound 16, 6-Morpholin-4-yl-pyridine-3-sulfonic acid {3-[3-(4-methoxy-phenyl)-[1,2,4]triazolo[3,4-a]phthalazin-6-ylamino]-phenyl}-amide], the melting point lay in the range of 323 to 329 °C.

`COc1ccc(-c2nnc3c4ccccc4c(Nc4cccc(NS(=O)(=O)c5ccc(NC(C)=O)cc5)c4)nn23)cc1` [Compound 18, N-(4-{3-[3-(4-Methoxy-phenyl)-[1,2,4]triazolo[3,4-a]phthalazin-6-ylamino]-phenylsulfamoyl}-phenyl)-acetamide] had a melting point of 328 to 331 °C. Still for that read-out and setting: to `COc1ccc(-c2nnc3c4ccccc4c(Nc4cccc(S(N)(=O)=O)c4)nn23)cc1` [Compound 23, 3-[3-(4-Methoxy-phenyl)-[1,2,4]triazolo[3,4-a]phthalazin-6-ylamino]-benzenesulfonamide] belongs 342 to 349 °C; to `COc1ccc(-c2nnc3c4ccccc4c(Nc4cccc(S(=O)(=O)N(C)C)c4)nn23)cc1` [Compound 24, 3-[3-(4-Methoxy-phenyl)-[1,2,4]triazolo[3,4-a]phthalazin-6-ylamino]-N,N-dimethyl-benzenesulfonamide], 220 to 227 °C. With `CN(C)S(=O)(=O)c1cccc(Nc2nn3c(-c4ccccc4Br)nnc3c3ccccc23)c1` [Compound 27, [3-(N,N-dimethylsulfamoyl)-phenyl]-[3-(2-bromo-phenyl)-[1,2,4]triazolo[3,4-a]phthalazin-6-yl]-amine], the IC50 in the data set with HUVEC monolayers is 0.501 to 126 nM.

On to `CN(C)S(=O)(=O)c1cccc(Nc2nn3c(-c4ccccc4C(F)(F)F)nnc3c3ccccc23)c1` [Compound 33, [3-(N,N-dimethylsulfamoyl)-phenyl]-[3-(2-trifluoromethyl-phenyl)-[1,2,4]triazolo[3,4-a]phthalazin-6-yl]-amine], for which the IC50 with HUVEC monolayers is 0.501 to 126 nM.

For `COc1ccc(Cc2nnc3c4ccccc4c(Nc4ccc(S(=O)(=O)N5CCCCC5)cc4)nn23)cc1` [Compound 35, [3-(4-Methoxy-benzyl)-[1,2,4]triazolo[3,4-a]phthalazin-6-yl]-[4-(piperidine-1-sulfonyl)-phenyl]-amine], the melting point was 283 to 285 °C.

`COc1ccc(-c2nnc3c4ccccc4c(Nc4ccc(C#N)cc4)nn23)cc1` [Compound T2, 4-[3-(4-Methoxyphenyl)-[1,2,4]triazolo[3,4-a]phthalazin-6-ylamino]-benzonitrile] came in with a melting point of 314 °C.

`COc1ccc(-c2nnc3c4ccccc4c(Nc4cccc(-c5nn[nH]n5)c4)nn23)cc1` [Compound T3, [3-(4-Methoxy-phenyl)-[1,2,4]triazolo[3,4-a]phthalazin-6-yl]-[3-(2H-tetrazol-5-yl)-phenyl]-amine] gave a melting point of 305 to 308 °C. `COc1ccc(-c2nnc3c4ccccc4c(Nc4ccc(-c5nn[nH]n5)cc4)nn23)cc1` [Compound T4, [3-(4-Methoxy-phenyl)-[1,2,4]triazolo[3,4-a]phthalazin-6-yl]-[4-(2H-tetrazol-5-yl)-phenyl]-amine]: the melting point fell in the range of 281 to 284 °C.

`COc1ccc(-c2nnc3c4ccccc4c(Nc4cccc(-c5nnn(C)n5)c4)nn23)cc1` [Compound T5, [3-(4-Methoxy-phenyl)-[1,2,4]triazolo[3,4-a]phthalazin-6-yl]-[3-(2-methyl-2H-tetrazol-5-yl)-phenyl]-amine] showed a melting point of 256 to 259 °C. Consider `COc1ccc(-c2nnc3c4ccccc4c(Nc4ccc(-c5nnn(C)n5)cc4)nn23)cc1` [Compound T6, [3-(4-Methoxy-phenyl)-[1,2,4]triazolo[3,4-a]phthalazin-6-yl]-[4-(2-methyl-2H-tetrazol-5-yl)-phenyl]-amine], for which the melting point is 289 to 293 °C. `COc1ccc(Cc2nnc3c4ccccc4c(Nc4cccc(-c5nn[nH]n5)c4)nn23)cc1` [Compound T8, [3-(4-Methoxy-benzyl)-[1,2,4]triazolo[3,4-a]phthalazin-6-yl]-[3-(2H-tetrazol-5-yl)-phenyl]-amine] showed a melting point of 292 to 293 °C. Still for that read-out and setting: the figure for `COc1ccc(Cc2nnc3c4ccccc4c(Nc4cccc(-c5nnn(C)n5)c4)nn23)cc1` [Compound T9, [3-(4-Methoxy-benzyl)-[1,2,4]triazolo[3,4-a]phthalazin-6-yl]-[3-(2-methyl-2H-tetrazol-5-yl)-phenyl]-amine] is 262 to 264 °C.

With `CC1CC(=O)NN=C1c1cc(-n2ccnc2)cs1` (stereo not shown) [Motapizone, reference compound], the “Thrombin-induced increase of HRP permeability (hyperpermeability)” value with HUVEC monolayers is recorded as “completely abolished; also recorded: completely blocked”. Take `COc1ccc(C(=O)Nc2c(Cl)cncc2Cl)cc1OC1CCCC1` [RP73401, reference compound]: the “Thrombin-induced increase of HRP permeability (hyperpermeability)” value in the data set on HUVEC monolayers is “completely abolished; also recorded: completely blocked”.

These data come from patent publication US8106047B2, “Triazolophthalazines” (NYCOMED GmbH, priority 2005, dated 2012).
